From PubChem BioAssay AID248 (DTP/NCI, 2004)
Inconclusive results and toxic doses are left out.

Tested on: L1210 leukemia ip in BDF1 mice, survival T/C
Experiment: NCI In Vivo Anticancer Drug Screen. Data for tumor model L1210 Leukemia (intraperitoneal) in B6D2F1 (BDF1) mice
Details: endpoint: mean survival time, higher = longer survival
Method in brief: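 Value reflects the ratio of survival in compound-treated mice to survival in vehicle-treated controls, with both groups carrying the same transplanted tumor.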

[1] = dose: 75.0 mg/kg/injection, schedule: Q01DX001 (ip), vehicle: saline
[2] = dose: 150.0 mg/kg/injection, schedule: Q01DX001 (ip), vehicle: saline
[3] = dose: 100.0 mg/kg/injection, schedule: Q01DX009 (ip), vehicle: saline
[4] = dose: 200.0 mg/kg/injection, schedule: Q01DX009 (ip), vehicle: saline
[5] = dose: 400.0 mg/kg/injection, schedule: Q01DX009 (ip), vehicle: saline
[6] = dose: 100.0 mg/kg/injection, schedule: Q01DX009 (ip), vehicle: Klucel (hydroxypropylcellulose) (HPC)

## O=S(=O)(/N=C1\C=CC=C\C1=N/S(=O)(=O)c1ccccc1)c1ccccc1
dose: 100.0 mg/kg/injection, schedule: Q01DX001 (ip), vehicle: saline with Tween-80
  T/C: 103 % of control
dose: 200.0 mg/kg/injection, schedule: Q01DX001 (ip), vehicle: saline with Tween-80
  T/C: 100 % of control
dose: 400.0 mg/kg/injection, schedule: Q01DX001 (ip), vehicle: saline with Tween-80
  T/C: 92 % of control

## O=C(Nc1ccc(Cl)c(Cl)c1)OCCCl
[1]
  T/C: 89 % of control
[2]
  T/C: 109 % of control

## O=C(Nc1ccc(C2=NCCCN2)cc1)Nc1ccc(NC(=O)Nc2ccc(C3=NCCCN3)cc2)c(Cl)c1
dose: 62.0 mg/kg/injection, schedule: Q01DX Z (ip), vehicle: carboxymethylcellulose (CMC)
  T/C: 163 % of control
dose: 62.0 mg/kg/injection, schedule: Q01DX Z (oral), vehicle: carboxymethylcellulose (CMC)
  T/C: 110 % of control
dose: 125.0 mg/kg/injection, schedule: Q01DX Z (oral), vehicle: carboxymethylcellulose (CMC)
  T/C: 110 % of control
dose: 250.0 mg/kg/injection, schedule: Q01DX Z (oral), vehicle: carboxymethylcellulose (CMC)
  T/C: 116 % of control
dose: 500.0 mg/kg/injection, schedule: Q01DX Z (oral), vehicle: carboxymethylcellulose (CMC)
  T/C: 111 % of control

## [Cl][Fe]([Cl])[Cl]
dose: 12.5 mg/kg/injection, schedule: Q01DX009 (ip), vehicle: saline with Tween-80
  T/C: 98 % of control
dose: 25.0 mg/kg/injection, schedule: Q01DX009 (ip), vehicle: saline with Tween-80
  T/C: 94 % of control
[1]
  T/C: 96 % of control
dose: 100.0 mg/kg/injection, schedule: Q04DX003 (ip), vehicle: saline with Tween-80
  T/C: 93 % of control
[2]
  T/C: 93 % of control
dose: 200.0 mg/kg/injection, schedule: Q04DX003 (ip), vehicle: saline with Tween-80
  T/C: 94 % of control
dose: 300.0 mg/kg/injection, schedule: Q01DX001 (ip), vehicle: saline
  T/C: 98 % of control
dose: 400.0 mg/kg/injection, schedule: Q04DX003 (ip), vehicle: saline with Tween-80
  T/C: 105 % of control

## Nc1ccc(S(=O)(=O)Nc2ccccn2)cc1
dose: 100.0 mg/kg/injection, schedule: Q04DX002 (ip), vehicle: Klucel (hydroxypropylcellulose) (HPC)
  T/C: 102 % of control
dose: 200.0 mg/kg/injection, schedule: Q04DX002 (ip), vehicle: Klucel (hydroxypropylcellulose) (HPC)
  T/C: 98 % of control
dose: 400.0 mg/kg/injection, schedule: Q04DX002 (ip), vehicle: Klucel (hydroxypropylcellulose) (HPC)
  T/C: 98 % of control

## NC(=O)c1cc(Cl)ccc1N
dose: 100.0 mg/kg/injection, schedule: Q01DX001 (ip), vehicle: other
  T/C: 97 % of control
dose: 200.0 mg/kg/injection, schedule: Q01DX001 (ip), vehicle: other
  T/C: 97 % of control
dose: 400.0 mg/kg/injection, schedule: Q01DX001 (ip), vehicle: other
  T/C: 105 % of control

## COc1ccc(C(=O)OCc2ccccc2CN2CCCC2)cc1
dose: 100.0 mg/kg/injection, schedule: Q01DX001 (ip), vehicle: Klucel (hydroxypropylcellulose) (HPC)
  T/C: 102 % of control
dose: 200.0 mg/kg/injection, schedule: Q01DX001 (ip), vehicle: Klucel (hydroxypropylcellulose) (HPC)
  T/C: 98 % of control

## OC(Cc1ccnc2ccccc12)C(Cl)(Cl)Cl (stereo unspecified)
[3]
  T/C: 95 % of control
[4]
  T/C: 101 % of control
[5]
  T/C: 95 % of control

## CC(=O)N(CC(=O)OCc1ccccc1)C(C)=O
[3]
  T/C: 110 % of control
[4]
  T/C: 103 % of control
[5]
  T/C: 105 % of control

## C1=C[P+](c2ccccc2)(c2ccccc2)CC[P+]1(c1ccccc1)c1ccccc1
dose: 75.0 mg/kg/injection, schedule: Q01DX001 (ip), vehicle: other
  T/C: 98 % of control
dose: 150.0 mg/kg/injection, schedule: Q01DX001 (ip), vehicle: other
  T/C: 95 % of control

## CC(C)=CCN(CC=C(C)C)CCC(C#N)(CCN(CC=C(C)C)CC=C(C)C)c1cccc2ccccc12
[6]
  T/C: 86 % of control

## CCOC(=O)CC1CCN(C(=O)c2ccccc2)C(Cc2c[nH]c3ccccc23)C1=O (stereo unspecified)
dose: 100.0 mg/kg/injection, schedule: Q01DX001 (ip), vehicle: saline
  T/C: 95 % of control
dose: 200.0 mg/kg/injection, schedule: Q01DX001 (ip), vehicle: saline
  T/C: 94 % of control
dose: 400.0 mg/kg/injection, schedule: Q01DX001 (ip), vehicle: saline
  T/C: 94 % of control

## O=C(Nc1ccccc1F)N(CC(O)c1ccccc1)C1CCCCC1 (stereo unspecified)
[6]
  T/C: 97 % of control
dose: 200.0 mg/kg/injection, schedule: Q01DX009 (ip), vehicle: Klucel (hydroxypropylcellulose) (HPC)
  T/C: 95 % of control
dose: 400.0 mg/kg/injection, schedule: Q01DX009 (ip), vehicle: Klucel (hydroxypropylcellulose) (HPC)
  T/C: 94 % of control
